PubChem BioAssay (NCI)
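Method: 48-hour compound exposure of cells in 96-well plates, five concentrations, linear interpolation of endpoints. The concentration for 50% growth inhibition is given as GI50. TGI marks complete inhibition of growth.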

How the values were obtained:
Assay in all cases: inhibition of tumour cell growth, NCI panel, 48 h
A498 renal = test system: A498 renal
CAKI-1 renal = test system: CAKI-1 renal
HOP-62 NSCLC = test system: HOP-62 NSCLC
IGROV1 ovarian = test system: IGROV1 ovarian
KM12 colon = test system: KM12 colon
NCI-H23 lung = test system: NCI-H23 lung
OVCAR-5 ovarian = test system: OVCAR-5 ovarian
SK-MEL-2 melanoma = test system: SK-MEL-2 melanoma
SNB-19 CNS = test system: SNB-19 CNS
SW-620 colon = test system: SW-620 colon

| SMILES | GI50 (A498 renal) | TGI (A498 renal) | GI50 (CAKI-1 renal) | TGI (CAKI-1 renal) | GI50 (HOP-62 NSCLC) | TGI (HOP-62 NSCLC) | GI50 (IGROV1 ovarian) | TGI (IGROV1 ovarian) | GI50 (KM12 colon) | TGI (KM12 colon) | GI50 (NCI-H23 lung) | TGI (NCI-H23 lung) | GI50 (OVCAR-5 ovarian) | TGI (OVCAR-5 ovarian) | GI50 (SK-MEL-2 melanoma) | TGI (SK-MEL-2 melanoma) | GI50 (SNB-19 CNS) | TGI (SNB-19 CNS) | GI50 (SW-620 colon) | TGI (SW-620 colon) |
| --- | --- | --- | --- | --- | --- | --- | --- | --- | --- | --- | --- | --- | --- | --- | --- | --- | --- | --- | --- | --- |
| Cc1ccc(O)c(NC(=O)c2cccc(Nc3ccnc(C(F)(F)F)c3)c2)c1 | 5 µM | 20.5 µM | 11 µM | 31.8 µM | 11.6 µM | 28.9 µM | 12.6 µM | 28.1 µM | 11 µM | 24.8 µM | 2.27 µM | 21.2 µM | 13 µM | 36 µM | 5.28 µM | 18.9 µM | 17.9 µM | 69.8 µM | 14.6 µM | 38.5 µM |
| O=C(/C=C\c1ccccc1O)c1ccc(O)cc1O | – | > 100 µM | – | > 100 µM | – | > 100 µM | – | > 100 µM | – | > 100 µM | – | > 100 µM | – | > 100 µM | – | > 100 µM | – | > 100 µM | – | 22.7 µM |
| C=CN(C(=O)N1CCN(c2cc3c(cc2F)c(=O)c(C(=O)O)cn3C2CC2)CC1)c1nc(-c2ccc(OC)cc2)cs1 | 2.93 µM | > 100 µM | 2.84 µM | 18.3 µM | 3.37 µM | 65.4 µM | 3.89 µM | > 100 µM | 3.12 µM | > 100 µM | 3.48 µM | 14.9 µM | 5.13 µM | > 100 µM | 2.59 µM | 5.21 µM | 4.7 µM | 46 µM | 4.04 µM | > 100 µM |
| COc1cc2c(cc1OC(C)C)[C@H](c1ccc(Cl)cc1)N(c1ccc(N(C)CC3CCC(N4CCN(C)C(=O)C4)CC3)cc1)C(=O)C2 (stereo not given in full) | 1.38 µM | 6.49 µM | 0.345 µM | 4.99 µM | 4.19 µM | 9.64 µM | 1.16 µM | 4.13 µM | 3.13 µM | 9.11 µM | 3.34 µM | 13.2 µM | 2.66 µM | 9.58 µM | 5.87 µM | 12.1 µM | 4.07 µM | 14.7 µM | 4.6 µM | 10 µM |
| CSc1ccc2c(cc1=O)[C@@H](NC(=O)c1cccc([N+](=O)[O-])c1)CCc1cc(O)c(O)c(O)c1-2 | – | 90.7 µM | – | > 100 µM | – | > 100 µM | – | > 100 µM | – | > 100 µM | – | > 100 µM | – | > 100 µM | – | > 100 µM | – | > 100 µM | – | 61.1 µM |
| COc1ccc(Cc2c3cc(O)c(=O)cc-3ccn2C)cc1 | – | > 100 µM | – | > 100 µM | – | 82.4 µM | – | > 100 µM | – | > 100 µM | – | > 100 µM | – | > 100 µM | – | > 100 µM | – | > 100 µM | – | > 100 µM |
| O=C1C=C(Nc2ccc(Cl)cc2Cl)c2ccccc2C1=O | – | > 100 µM | – | > 100 µM | – | > 100 µM | – | > 100 µM | – | > 100 µM | – | 54.5 µM | – | > 100 µM | – | 60.8 µM | – | > 100 µM | – | > 100 µM |
| CNC(=O)c1c(C)oc2cc(Oc3ncnc4cc(OC)c(OC)cc34)ccc12 | 0.946 µM | 5.44 µM | > 100 µM | > 100 µM | > 100 µM | > 100 µM | > 100 µM | > 100 µM | > 100 µM | > 100 µM | > 100 µM | > 100 µM | > 100 µM | > 100 µM | > 100 µM | > 100 µM | > 100 µM | > 100 µM | > 100 µM | > 100 µM |
| Cc1c(-c2cnccn2)ssc1=S | – | 59.7 µM | – | > 100 µM | – | 92 µM | – | > 100 µM | – | > 100 µM | – | > 100 µM | – | > 100 µM | – | > 100 µM | – | > 100 µM | – | > 100 µM |
| O=c1oc2ccc(I)cc2c(=O)n1-c1ccc(Br)cc1F | 0.225 µM | 0.697 µM | 0.375 µM | 3.23 µM | 1.83 µM | 6.65 µM | 0.745 µM | 13.3 µM | 2.07 µM | 4.69 µM | 0.658 µM | 3.99 µM | 3.55 µM | > 100 µM | 0.385 µM | 2.29 µM | 0.434 µM | > 63.5 µM | 1.1 µM | 9.68 µM |
| Cc1ccc(C)c(N2C(=O)C(=O)C(c3nc4ccccc4s3)/C(=N/N)C2=O)c1 (stereo not given) | – | > 22.6 µM | – | > 100 µM | – | > 100 µM | – | > 100 µM | – | > 100 µM | – | > 100 µM | – | > 100 µM | – | > 100 µM | – | > 100 µM | – | > 100 µM |
| CCc1nc(N)nc(N)c1-c1ccc(Cl)c([N+](=O)[O-])c1 | – | > 96 µM | – | > 100 µM | – | > 95.5 µM | – | > 100 µM | – | > 100 µM | – | > 100 µM | – | > 100 µM | – | 90.5 µM | – | > 100 µM | – | > 100 µM |
| COc1ccc2c(c1)C(=O)c1c-2n(CCCN(C)C)c(=O)c2ccccc12 | 0.377 µM | 1.72 µM | 0.243 µM | 4.9 µM | 0.433 µM | 11.2 µM | 0.344 µM | 12.3 µM | 0.412 µM | 5.25 µM | 0.318 µM | 1.31 µM | 0.515 µM | 12.7 µM | 1.86 µM | 7.18 µM | 0.264 µM | 3.4 µM | 0.16 µM | 3.93 µM |
| CCc1cccc(C(C)C)c1NC(=O)C(=O)C1C(=O)Nc2ccccc2S1=O (stereo not given) | – | > 100 µM | – | > 100 µM | – | > 100 µM | – | > 100 µM | – | > 100 µM | – | > 100 µM | – | > 100 µM | – | > 100 µM | – | > 100 µM | – | > 100 µM |
| COc1ccc(/C=C\c2cc(OC)c(OC)c(OC)c2)cc1OCC(=O)Nc1nc2ccc(F)cc2s1 | 6.25 µM | > 100 µM | 2.78 µM | > 100 µM | 5.7 µM | > 100 µM | 4.17 µM | > 100 µM | 4.78 µM | > 100 µM | 4.26 µM | > 100 µM | > 100 µM | > 100 µM | 8.46 µM | > 100 µM | > 100 µM | > 100 µM | 65.1 µM | > 100 µM |
| O=C(O)CCNCC(=O)O | – | > 100 µM | – | > 100 µM | – | > 100 µM | – | > 100 µM | – | > 100 µM | – | > 100 µM | – | > 100 µM | – | > 100 µM | – | > 100 µM | – | > 100 µM |
| CCOC(=O)C1=CCCC[C@H]1S(=O)(=O)Nc1ccc(F)cc1Cl | 42.6 µM | > 100 µM | 31.5 µM | > 100 µM | 25.5 µM | > 100 µM | 31 µM | > 100 µM | 27.1 µM | > 100 µM | 26.6 µM | > 100 µM | 25 µM | 77.1 µM | 21 µM | 83.8 µM | 29.4 µM | > 100 µM | 30 µM | > 100 µM |
| C=C(CCCCC)CN1CCCC1C(C)=O (stereo not given) | – | > 93.5 µM | – | > 92.3 µM | – | 64.1 µM | – | > 100 µM | – | > 100 µM | – | 65.1 µM | – | > 96.1 µM | – | > 74.7 µM | – | > 100 µM | – | > 100 µM |
| CCC[C@H]1O[C@@H]2CC(=O)O[C@@H]2C2=C1C(=O)C=CC2=O | – | > 70.3 µM | – | 34.1 µM | – | > 95 µM | – | 32.1 µM | – | 48.3 µM | – | 18.5 µM | – | 36 µM | – | 38.6 µM | – | > 100 µM | – | 35.7 µM |
| COc1c/c(=C2\C=c3ccccc3=N2)[nH]/c1=C\c1[nH]c(C)cc1C | 0.242 µM | 7.47 µM | < 0.0103 µM | 0.109 µM | 0.468 µM | 6.87 µM | 0.102 µM | 17.7 µM | 0.0216 µM | 10.6 µM | 0.0986 µM | 7.08 µM | 0.25 µM | > 56.5 µM | 0.0753 µM | 2.27 µM | 2.99 µM | > 88.7 µM | < 0.01 µM | 51.4 µM |
